Tests used:
Alternaria brassicae = experiment: In vivo preventive test on Alternaria brassicae (leaf spot on radish); conditions: Table C1, 500 ppm, radish plants, grading 6 days after contamination
Description: The active ingredients tested are prepared by homogenization in a mixture of acetone/tween/DMSO, and then diluted with water to obtain the desired active material concentration.
Radish plants (“Pernod Clair” variety), sown in starter cups on a 50/50 peat soil pozzolana substrate and grown at 17° C., are treated at the cotyledon stage by spraying with the active ingredient prepared as described above. Plants, used as controls, are treated with the mixture of acetone/tween/DMSO/water not containing the active material.
After 24 hours, the plants are contaminated by spraying the cotyledons with an aqueous suspension of Alternaria brassicae spores (50 000 spores per mL). The spores are collected from a 15-day-old culture.
The contaminated radish plants are incubated at 20° C. and at 100% relative humidity.
Grading (% of efficacy) is carried out 6 days after the contamination, in comparison with the control plants.
Under these conditions, high (at least 80%) to excellent (at least 90%) protection is observed at a dose of 500 ppm of active ingredient with the following compounds from table C1: […]

Botrytis cinerea = experiment: In vivo preventive test on Botrytis cinerea (beans)
Description: To produce a suitable preparation of active compound, 1 part by weight of active compound is mixed with the stated amounts of solvent and emulsifier, and the concentrate is diluted with water to the desired concentration.
To test for preventive activity, young plants are sprayed with the preparation of active compound. After the spray coating has dried on, 2 small pieces of agar covered with growth of Botrytis cinerea are placed on each leaf. The inoculated plants are placed in a darkened chamber at 20° C. and a relative atmospheric humidity of 100%.
2 days after the inoculation, the size of the lesions on the leaves is evaluated. 0% means an efficacy which corresponds to that of the untreated control, while an efficacy of 100% means that no disease is observed.
Under these conditions, excellent (at least 95%) protection is observed at a dose of 100 ppm of active ingredient with the following compound from table E1: […]

Cc1nn(C)c(F)c1C(=O)N(C1CC1)C(C)c1ccccc1C1=CCCC1 (racemic) [I.1]
Efficacy (Alternaria brassicae): 98%
Efficacy (Botrytis cinerea; Table E1, 100 ppm, lesion size 2 days after inoculation): 98%
Efficacy (Botrytis cinerea; Table E2, dose 100 ppm, 2 days after inoculation): 98%
Efficacy (Botrytis cinerea; Table E2, dose 100 ppm, 2 days after inoculation, listed as 1.1): at least 95%
Efficacy (Botrytis cinerea; Table E2, dose 250 ppm, 2 days after inoculation): 98%
Efficacy (Botrytis cinerea; Table E2, dose 250 ppm, 2 days after inoculation, listed as 1.1): at least 95%

From US9540314B2, “N-cycloalkyl-N-[(cycloalkenylphenyl)methylene]-(thio) carboxamide derivatives” (BAYER INTELLECTUAL PROPERTY GMBH, priority 2012, dated 2017)
